Experimental data as given in ChEMBL document CHEMBL3046627, “Synthesis and in vitro study of antibacterial, antifungal activities of some novel bisquinolines” (2013).
Converted amounts (≈) assume the structure as drawn. The source made the active and inactive calls. No cut-off for these calls is given here.

Columns and labels:
Staphylococcus aureus [1] = assay: Antibacterial activity against Staphylococcus aureus 29737 assessed as growth inhibition at MIC after 24 hr by agar dilution method; assay type: functional
Klebsiella pneumoniae [2] = assay: Antibacterial activity against Klebsiella pneumoniae J/I/4 assessed as growth inhibition after 24 hr by agar dilution method; assay type: functional; conditions: J/I/4, 24 h
Micrococcus luteus [3] = assay: Antibacterial activity against Micrococcus luteus ATCC 9341 assessed as growth inhibition after 24 hr by agar dilution method; assay type: functional; conditions: ATCC 9341, 24 h
Aspergillus niger [4] = assay: Antifungal activity against Aspergillus niger assessed as growth inhibition after 96 hr by agar dilution method; assay type: functional
Klebsiella pneumoniae [5] = assay: Antibacterial activity against Klebsiella pneumoniae J/I/4 assessed as growth inhibition at MIC after 24 hr by agar dilution method; assay type: functional
Candida albicans [6] = assay: Antifungal activity against Candida albicans assessed as growth inhibition after 96 hr by agar dilution method; assay type: functional
Shigella dysenteriae [7] = assay: Antibacterial activity against Shigella dysenteriae 15 assessed as growth inhibition after 24 hr by agar dilution method; assay type: functional; conditions: Shigella dysenteriae, 15, 24 h
Pseudomonas aeruginosa [8] = assay: Antibacterial activity against Pseudomonas aeruginosa 71 assessed as growth inhibition at MIC after 24 hr by agar dilution method; assay type: functional
Klebsiella pneumoniae [9] = assay: Antibacterial activity against Klebsiella pneumoniae J/I/4 assessed as cell agglomeration at MIC after 24 hr by scanning electron microscopic analysis relative to untreated control; assay type: functional, organism-based
Cryptococcus neoformans [10] = assay: Antifungal activity against Cryptococcus neoformans assessed as growth inhibition after 96 hr by agar dilution method; assay type: functional
Shigella dysenteriae [11] = assay: Antibacterial activity against Shigella dysenteriae 15 assessed as growth inhibition at MIC after 24 hr by agar dilution method; assay type: functional
Vibrio cholerae [12] = assay: Antibacterial activity against Vibrio cholerae 759 assessed as growth inhibition after 24 hr by agar dilution method; assay type: functional; conditions: Vibrio cholerae, 759, 24 h
Escherichia coli [13] = assay: Antibacterial activity against Escherichia coli 319 assessed as growth inhibition after 24 hr by agar dilution method; assay type: functional; conditions: Escherichia coli, 319, 24 h
Candida tropicalis [14] = assay: Antifungal activity against Candida tropicalis assessed as growth inhibition after 96 hr by agar dilution method; assay type: functional
Vibrio cholerae [15] = assay: Antibacterial activity against Vibrio cholerae 759 assessed as growth inhibition at MIC after 24 hr by agar dilution method; assay type: functional
Bacillus pumilus [16] = assay: Antibacterial activity against Bacillus pumilus 11778 assessed as growth inhibition after 24 hr by agar dilution method; assay type: functional; conditions: Bacillus pumilus, 11778, 24 h
Escherichia coli [17] = assay: Antibacterial activity against Escherichia coli 319 assessed as growth inhibition at MIC after 24 hr by agar dilution method; assay type: functional
Bacillus pumilus [18] = assay: Antibacterial activity against Bacillus pumilus 11778 assessed as growth inhibition at MIC after 24 hr by agar dilution method; assay type: functional
Pseudomonas aeruginosa [19] = assay: Antibacterial activity against Pseudomonas aeruginosa 71 assessed as growth inhibition after 24 hr by agar dilution method; assay type: functional; conditions: Pseudomonas aeruginosa, 71, 24 h
Klebsiella pneumoniae [20] = assay: Antibacterial activity against Klebsiella pneumoniae J/I/4 assessed as cell wall deformation at MIC after 24 hr by scanning electron microscopic analysis relative to untreated control; assay type: functional, organism-based
Staphylococcus aureus [21] = assay: Antibacterial activity against Staphylococcus aureus 29737 assessed as growth inhibition after 24 hr by agar dilution method; assay type: functional; conditions: Staphylococcus aureus, 29737, 24 h
Micrococcus luteus [22] = assay: Antibacterial activity against Micrococcus luteus ATCC 9341 assessed as growth inhibition at MIC after 24 hr by agar dilution method; assay type: functional
Klebsiella pneumoniae [23] = assay: Antibacterial activity against Klebsiella pneumoniae J/I/4 assessed as growth inhibition at MIC; assay type: functional, organism-based; conditions: TDE = time-dependent effect
Aspergillus niger [24] = assay: Antifungal activity against Aspergillus niger assessed as growth inhibition at MIC after 96 hr by agar dilution method; assay type: functional
Candida tropicalis [25] = assay: Antifungal activity against Candida tropicalis assessed as growth inhibition at MIC after 96 hr by agar dilution method; assay type: functional
Cryptococcus neoformans [26] = assay: Antifungal activity against Cryptococcus neoformans assessed as growth inhibition at MIC after 96 hr by agar dilution method; assay type: functional
Candida albicans [27] = assay: Antifungal activity against Candida albicans assessed as growth inhibition at MIC after 96 hr by agar dilution method; assay type: functional
Escherichia coli [28] = assay: Antibacterial activity against Escherichia coli 319 assessed as growth inhibition at MIC; assay type: functional, organism-based; conditions: TDE = time-dependent effect

SMILES | diameter of the inhibition zone (DIZ) (Staphylococcus aureus [1]) [mm] | MIC (Klebsiella pneumoniae [2]) [µg/mL] | MIC (Micrococcus luteus [3]) [µg/mL] | MIC (Aspergillus niger [4]) | diameter of the inhibition zone (DIZ) (Klebsiella pneumoniae [5]) | MIC (Candida albicans [6]) | MIC (Shigella dysenteriae [7]) [µg/mL] | diameter of the inhibition zone (DIZ) (Pseudomonas aeruginosa [8]) | MIC (Cryptococcus neoformans [10]) | diameter of the inhibition zone (DIZ) (Shigella dysenteriae [11]) | MIC (Vibrio cholerae [12]) [µg/mL] | MIC (Escherichia coli [13]) [µg/mL] | MIC (Candida tropicalis [14]) | diameter of the inhibition zone (DIZ) (Vibrio cholerae [15]) [mm] | MIC (Bacillus pumilus [16]) [µg/mL] | diameter of the inhibition zone (DIZ) (Escherichia coli [17]) | diameter of the inhibition zone (DIZ) (Bacillus pumilus [18]) | MIC (Pseudomonas aeruginosa [19]) [µg/mL] | MIC (Staphylococcus aureus [21]) [µg/mL] | diameter of the inhibition zone (DIZ) (Micrococcus luteus [22]) [mm] | further results
Clc1ccc(OCc2cc3ccccc3cc2COc2ccc(Cl)c3cccnc23)c2ncccc12 | 6 | 32 (≈ 62.6 µM) | 32 (≈ 62.6 µM) | inactive | 7 mm | inactive | > 500 | inactive | inactive | inactive | 128 (≈ 250 µM) | 32 (≈ 62.6 µM) | inactive | 8 | 32 (≈ 62.6 µM) | 7.2 mm | 8 mm | > 500 | > 500 | 8 | Activity (Klebsiella pneumoniae [9]): Active; Activity (Klebsiella pneumoniae [20]): Active; growth inhibition (GI) (Klebsiella pneumoniae [23]): tde
Clc1ccc(OCc2cccc(COc3ccc(Cl)c4cccnc34)c2)c2ncccc12 | 8 | 32 (≈ 69.4 µM) | 64 (≈ 139 µM) | 1000 µg/mL (≈ 2170 µM) | 6 mm | inactive | 32 (≈ 69.4 µM) | 6 mm | inactive | 8 mm | 256 (≈ 555 µM) | > 500 | 1000 µg/mL (≈ 2170 µM) | 6 | > 500 | inactive | inactive | 256 (≈ 555 µM) | 128 (≈ 277 µM) | 8 | diameter of the inhibition zone (DIZ) (Aspergillus niger [24]): 8 mm; diameter of the inhibition zone (DIZ) (Candida tropicalis [25]): 7 mm; diameter of the inhibition zone (DIZ) (Cryptococcus neoformans [26]): inactive; diameter of the inhibition zone (DIZ) (Candida albicans [27]): inactive
Cc1ccc2cccc(OCc3ccccc3COc3cccc4ccc(C)nc34)c2n1 | 6 | 32 (≈ 76.1 µM) | 128 (≈ 304 µM) | 1000 µg/mL (≈ 2380 µM) | 8 mm | inactive | 32 (≈ 76.1 µM) | inactive | inactive | 8 mm | 64 (≈ 152 µM) | > 1000 | 2000 µg/mL (≈ 4760 µM) | 8 | > 500 | inactive | 7 mm | > 500 | 128 (≈ 304 µM) | 7 | diameter of the inhibition zone (DIZ) (Aspergillus niger [24]): 9 mm; diameter of the inhibition zone (DIZ) (Candida tropicalis [25]): 7 mm; diameter of the inhibition zone (DIZ) (Cryptococcus neoformans [26]): inactive; diameter of the inhibition zone (DIZ) (Candida albicans [27]): inactive
Clc1ccc(OCc2ccccc2COc2ccc(Cl)c3cccnc23)c2ncccc12 | 7 | > 500 | 32 (≈ 69.4 µM) | 1000 µg/mL (≈ 2170 µM) | inactive | 1500 µg/mL (≈ 3250 µM) | 64 (≈ 139 µM) | 7.5 mm | inactive | 6 mm | 32 (≈ 69.4 µM) | 32 (≈ 69.4 µM) | 1000 µg/mL (≈ 2170 µM) | 7 | 32 (≈ 69.4 µM) | 6.5 mm | 6 mm | 64 (≈ 139 µM) | 128 (≈ 277 µM) | 6.5 | growth inhibition (GI) (Escherichia coli [28]): tde; diameter of the inhibition zone (DIZ) (Aspergillus niger [24]): 7.5 mm; diameter of the inhibition zone (DIZ) (Candida tropicalis [25]): 9 mm; diameter of the inhibition zone (DIZ) (Cryptococcus neoformans [26]): inactive; diameter of the inhibition zone (DIZ) (Candida albicans [27]): 7 mm
